The record followed here is patent US9034866B2 (Genentech, Inc., priority 2012, dated 2015).

The Ki is the dissociation constant of the complex between target and ligand, obtained from inhibition or displacement.

The target in the experiment is nuclear factor-kappa B (NF-kB)-inducing kinase (NIK) (Homo sapiens (Human), UniProt Q99558). In words: NIK Enzyme Inhibition Assay (Transcreener ADP fluorescence polarization). It counts as biochemical. To be noted: read-out: NIK ADP-FP (Ki uM). The procedure:
NIK Enzyme Inhibition Assay: The ability of the nuclear factor-kappa B (NF-kB)-inducing kinase (NIK) to catalyze the hydrolysis of adenosine-5′-triphosphate (ATP) was monitored using the Transcreener ADP (adenosine-5′-diphosphate) assay (BellBrook Labs). Purified NIK (0.2-1 nM) derived from a baculovirus-infected insect cell expression system was incubated with test compounds for 1-3.5 hours in 50 mM 2-[4-(2-hydroxyethyl)piperazin-1-yl]ethanesulfonic acid buffer (pH 7.2) containing 10 mM MgCl2, 2 mM dithiothreitol, 10 uM ATP, 0.01% Triton X-100, 0.1% gamma-globulins from bovine blood, 1% dimethylsulfoxide (DMSO), 12 ug/mL ADP antibody and 4 nM ADP-AlexaFluor® 633 tracer. Reactions were quenched by the addition of 20 mM 2,2′,2″,2′″-(ethane-1,2-diyldinitrilo)tetraacetic acid and 0.01% Brij 35. The tracer bound to the antibody was displaced by the ADP generated during the NIK reaction, which causes a decrease in fluorescence polarization that was measured by laser excitation at 633 nm with a Fluorescence Correlation Spectroscopy Plus reader (Evotec AG).

[1] abbreviates: purified NIK 0.2-1 nM, 10 uM ATP, Morrison's quadratic equation.

Structures are written as SMILES. Values joined by “and” are separate entries in the source; they are usually repeats but may differ in a detail not shown here. Equal values may be shown once. Read-outs that look alike come from different tables or passages of the source.

Chain of nuclear factor-kappa B (NF-kB)-inducing kinase (NIK) (Q99558 whole entry): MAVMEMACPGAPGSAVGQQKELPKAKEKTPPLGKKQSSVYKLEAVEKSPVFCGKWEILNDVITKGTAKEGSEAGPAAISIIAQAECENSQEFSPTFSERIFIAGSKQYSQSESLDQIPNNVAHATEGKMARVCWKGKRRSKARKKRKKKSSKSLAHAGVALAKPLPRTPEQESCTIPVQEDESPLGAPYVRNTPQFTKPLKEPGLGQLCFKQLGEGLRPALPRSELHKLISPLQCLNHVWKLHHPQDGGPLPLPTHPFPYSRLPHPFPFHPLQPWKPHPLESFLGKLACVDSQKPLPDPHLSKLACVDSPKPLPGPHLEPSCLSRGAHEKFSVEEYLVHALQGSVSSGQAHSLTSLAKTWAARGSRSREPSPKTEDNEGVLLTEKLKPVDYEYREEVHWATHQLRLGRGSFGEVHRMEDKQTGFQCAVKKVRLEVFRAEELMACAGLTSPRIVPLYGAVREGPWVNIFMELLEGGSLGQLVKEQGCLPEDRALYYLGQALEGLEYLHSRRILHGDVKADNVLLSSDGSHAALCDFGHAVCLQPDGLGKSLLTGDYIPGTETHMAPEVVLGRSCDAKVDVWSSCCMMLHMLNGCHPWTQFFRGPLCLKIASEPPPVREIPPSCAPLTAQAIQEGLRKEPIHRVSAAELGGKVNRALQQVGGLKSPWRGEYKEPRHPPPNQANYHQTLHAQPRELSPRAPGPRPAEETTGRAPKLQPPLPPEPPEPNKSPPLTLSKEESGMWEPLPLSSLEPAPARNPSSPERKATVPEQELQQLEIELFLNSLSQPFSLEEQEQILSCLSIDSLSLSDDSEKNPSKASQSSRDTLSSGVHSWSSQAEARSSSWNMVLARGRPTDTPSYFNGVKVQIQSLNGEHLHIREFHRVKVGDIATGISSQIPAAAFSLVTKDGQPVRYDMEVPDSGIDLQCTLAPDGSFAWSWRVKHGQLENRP

Turning to `CC(C)(O)C#Cc1cc2c(cc1F)OCCn1c-2nc(C(N)=O)c1C(=O)NC1CCOC1` (centres unmarked), under setting [1], the Ki is 0.037 µM.

`COCC1(CNC(=O)c2c(C(N)=O)nc3n2CCOc2cc(F)c(C#CC(C)(C)O)cc2-3)CC1` (racemic) [Example 69]: the Ki under setting [1] is 0.041 µM.

Regarding `CC(C)(C#Cc1cc2c(cc1F)OCCn1cc(C(N)=O)nc1-2)CO` (racemic), under setting [1], the Ki is more than 5 µM.

For `C[C@@](O)(C#Cc1ccc2c(c1)-n1nc(C(N)=O)cc1C(F)(F)CO2)c1cccnn1`, the Ki under setting [1] came out at 1.6 µM.

For the compound `CNC(=O)c1c(C(N)=O)nc2n1C1CC(C1)c1cc(F)c(C#C[C@@](C)(O)c3noc(C)n3)cc1-2`, the Ki was determined as 0.051 µM.

Consider `CC(C)(O)C#Cc1cc2c(cc1F)C1CC(C1)n1c-2nc(C(N)=O)c1CNC(=O)C(C)(C)C` [Example 365, 3-[(2,2-dimethylpropanoylamino)meth-yl]-9-fluoro-10-(3-hydroxy-3-methyl-but-1-ynyl)-5,6,7,12-tetrahydro-5,7-meth-anobenzo[c]imidazo[1,2-a]azepine-2-carb-oxamide], for which the Ki under setting [1] was found to be 0.017 µM.

On to `Cc1nnc([C@](C)(O)C#Cc2ccc3c(c2)-n2nc(C(N)=O)cc2C(C)CO3)o1` (some centres unmarked) [Example 497], for which the Ki under setting [1] was 0.039 µM.

For `CC(C)(O)C#Cc1cc2c(cc1F)C1CC(C1)n1c-2nc(C(N)=O)c1Cc1ccccc1Cl` (racemic), the Ki under setting [1] amounted to 0.0021 µM.

Regarding `CC(C)(O)C#Cc1ccc2c(c1)-c1nc(C(N)=O)sc1C(C)(O)CO2` (centres unmarked) [Example 21, 4-hydroxy-9-(3-hydroxy-3-methyl-but-1-ynyl)-4-methyl-4,5-dihydro-6-oxa-3-thia-1-aza-benzo[e]azulene-2-carboxylic acid amide], the Ki under setting [1] was determined as 0.094 µM.

As to `CC(O)(C#Cc1cc2c(cc1F)OCCn1cc(C(N)=O)nc1-2)c1nc(CC#N)cs1` (racemic) [Example 77], the Ki under setting [1] is 1.2 µM.

`CC(O)(C#Cc1cc2c(cc1F)OCCn1cc(C(N)=O)nc1-2)c1ccccn1` (racemic) [Example 54]: the Ki under setting [1] is 0.024 µM.

On to `Cc1cc([C@](C)(O)C#Cc2ccc3c(c2)-c2nc(C(N)=O)c(C(=O)NCc4cccnc4)n2CCO3)no1` [Example 581, (R)-10-(3-hydroxy-3-(5-methylisoxazol-3-yl)but-1-yn-1-yl)-N3-(pyridin-3-ylmeth-yl)-5,6-dihydrobenzo[f]imidazo[1,2-d][1,4]oxazepine-2,3-dicarboxamide], for which the Ki under setting [1] came out at 0.001 µM.

Regarding `CC(O)(C#Cc1ccc2c(c1)-c1nc(C(N)=O)cn1C1CC2C1)c1nc[nH]n1` (centres unmarked), the Ki under setting [1] was 0.018 µM.

Regarding `Cn1cnc(C(C)(O)C#Cc2cc3c(cc2F)OCCc2sc(C(N)=O)nc2-3)c1` (centres unmarked), the Ki under setting [1] is more than 5 µM.

As to `CC(C)(O)C#Cc1ccc2c(c1)-c1nc(C(N)=O)sc1C(NC1CCC1)CO2` (centres unmarked) [Example 22, 4-cyclobutylamino-9-(3-hydroxy-3-meth-yl-but-1-ynyl)-4,5-dihydro-6-oxa-3-thia-1-aza-benzo[e]azulene-2-carboxylic acid amide], under setting [1], the Ki amounted to 0.97 µM.

With `CC(C)(O)C#Cc1ccc2c(c1)-c1nc(C(N)=O)c(-c3cc[nH]n3)n1CCO2` [Example 110], the Ki under setting [1] is 0.023 µM.

Regarding `COCC(C)(O)C#Cc1cc2c(cc1F)OCCn1cc(C(N)=O)nc1-2` (centres unmarked), the inhibition constant (Ki) under setting [1] was 0.068 µM.

On to `CC(=O)N1CCN(Cc2c(C(N)=O)nc3n2C2CC(C2)c2cc(F)c(C#CC(C)(C)O)cc2-3)CC1` (racemic), for which the Ki under setting [1] is 0.026 µM.

Take `CN(C)C1COc2ccc(C#CC(C)(C)O)cc2-c2nc(C(N)=O)sc21` (centres unmarked) [Example 10, 4-dimethylamino-9-(3-hydroxy-3-meth-yl-but-1-ynyl)-4,5-dihydro-6-oxa-3-thia-1-aza-benzo[e]azulene-2-carboxylic acid amide]: the Ki under setting [1] worked out at 0.096 µM.

Consider `CC(C)(O)C#Cc1cc2c(cc1F)OCCn1c-2nc(C(N)=O)c1C(=O)NCC1COC1` [Example 91], for which, under setting [1], the Ki is 0.004 µM.

Turning to `Cc1nc([C@](C)(O)C#Cc2ccc3c(c2)-c2nc(C(N)=O)c(C(O)c4ccnn4C)n2C2CC3C2)no1` (some centres unmarked), under setting [1], the inhibition constant (Ki) was 0.0029 µM.

Turning to `Cc1cc([C@](C)(O)C#Cc2ccc3c(c2)-c2nc(C(N)=O)c(C(=O)NCC4COC4)n2CCO3)no1` [Example 580, (R)-10-(3-hydroxy-3-(5-methylisoxazol-3-yl)but-1-yn-1-yl)-N3-(oxetan-3-ylmeth-yl)-5,6-dihydrobenzo[f]imidazo[1,2-d][1,4]oxazepine-2,3-dicarboxamide], the Ki under setting [1] came to 0.0026 µM.

With `Cn1nccc1C(O)c1c(C(N)=O)nc2n1C1CC(C1)c1cc(F)c(C#CC(C)(C)O)cc1-2` (racemic), the Ki under setting [1] turned out to be 0.0072 µM.

Take `CC(O)(C#Cc1ccc2c(c1)-c1nc(C(N)=O)cn1CCO2)CO` (centres unmarked) [Example 20]: under setting [1], the Ki stood at 0.771 µM.

As to `CC(O)(C#Cc1cc2c(cc1F)OCCn1cc(C(N)=O)nc1-2)c1ccc(F)cn1` (centres unmarked) [Example 101, 8-fluoro-9-[3-(5-fluoro-pyridin-2-yl)-3-hydroxy-but-1-ynyl]-4,5-dihydro-6-oxa-1,3a-diaza-benzo[e]azulene-2-carboxy-lic acid amide], the Ki under setting [1] came out at 3.5 µM.

Take `CC(C)(O)C#Cc1cc2c(cc1F)OCCn1c-2nc(C(N)=O)c1C#N` [Example 33, 3-cyano-8-fluoro-9-(3-hydroxy-3-methyl-but-1-ynyl)-4,5-dihydro-6-oxa-1,3a-diaza-benzo[e]azulene-2-carboxylic acid amide]: the Ki under setting [1] was 0.172 µM.

Consider `CNC(=O)C(C)(O)C#Cc1cc2c(cc1F)OCCn1cc(C(N)=O)nc1-2` (centres unmarked), for which the Ki under setting [1] was found to be 1.4 µM.

For the compound `Cn1cc([C@H](O)c2c(C(N)=O)nc3n2CCOc2cc(F)c(C#CC(C)(C)O)cc2-3)cn1`, the Ki under setting [1] is 0.033 µM.

On to `CC(C)(O)C#Cc1cc2c(cc1F)OCCn1c-2nc(C(N)=O)c1C(=O)NC1(C)COC1` [Example 60], for which the Ki under setting [1] was 0.025 µM.

As for `CC(C)(O)C#Cc1cc2c(cc1F)OCCn1c-2nc(C(N)=O)c1-c1nc(C2CC2)no1` (racemic) [Example 188], under setting [1], the Ki is 0.19 µM.

With `CC(C)(O)C#Cc1ccc2c(c1)-c1nc(C(N)=O)c(CN3CCC(=O)C3)n1CCO2` [Example 711], the Ki under setting [1] was 1.8 µM and 1.1 µM.

Regarding `CC(O)C(C)(O)C#Cc1cc2c(cc1F)OCCn1cc(C(N)=O)nc1-2` (centres unmarked), the Ki under setting [1] came to 4.9 µM.

Consider `CN1CCCC(O)(C#Cc2ccc3c(c2)-c2nc(C(N)=O)cn2CCO3)C1=O` (centres unmarked) [Example 158], for which the Ki under setting [1] is 0.0059 µM.

`CC(C)(O)C#Cc1cc2c(cc1F)OCCn1c-2nc(C(N)=O)c1C1CC1` [Example 36, 3-cyclopropyl-8-fluoro-9-(3-hydroxy-3-methyl-but-1-ynyl)-4,5-dihydro-6-oxa-1,3a-diaza-benzo[e]azulene-2-carboxylic acid amide]: the Ki under setting [1] is 0.037 µM.

As for `CC(O)(C#Cc1cc2c(cc1F)OCCn1cc(C(N)=O)nc1-2)c1cc(CO)on1` (centres unmarked) [Example 32, 8-fluoro-9-[3-hydroxy-3-(5-hydroxymeth-yl-isoxazol-3-yl)-but-1-ynyl]-4,5-dihy-dro-6-oxa-1,3a-diaza-benzo[c]azulene-2-carboxylic acid amide], the Ki under setting [1] was determined as 0.002 µM.

Regarding `Cn1cc([C@@H](O)c2c(C(N)=O)nc3n2CCOc2cc(F)c(C#CC(C)(C)O)cc2-3)cn1`, under setting [1], the Ki turned out to be 0.033 µM.

In the case of `CN1CC[C@@](O)(C#Cc2ccc3c(c2)-c2nc(C(N)=O)c(C(=O)NC4CC4)n2C2CC3C2)C1=O`, under setting [1], the Ki is 0.016 µM.

As for `Cc1nnc(C(C)(C#Cc2ccc3c(c2)-c2nc(C(N)=O)cn2CCO3)CO)[nH]1` (centres unmarked) [Example 28, 9-[4-hydroxy-3-methyl-3-(5-methyl-4H-[1,24]triazol-3-yl)-but-1-ynyl]-4,5-di-hydro-6-oxa-1,3a-diaza-benzo[e]azulene-2-carboxylic acid amide], the Ki under setting [1] is more than 5 µM.
